In patent publication US20240228458A1, “PYRIMIDINE DERIVATIVE HAVING PROTEIN KINASE INHIBITORY ACTIVITY, AND THERAPEUTIC PHARMACEUTICAL COMPOSITION COMPRISING SAME” (THERAPEX CO., LTD., priority 2021, published 2024) one finds GI50 data, which are given here for 18 molecules.

Format in all cases: cell-based
Experiment [1] deals with parental Ba/F3 cell line. Put plainly: Growth inhibition (GI50) of the parental Ba/F3 cell line (not introduced with EGFR variants), Celltiter glo. The settings on record: Mus musculus, BaF3, 72 h, parental Ba/F3 cells. In outline:
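Parental Ba/F3 cells (100,000 cells/ml) were treated with 10-point, 4-fold compound dilutions (0.5% DMSO; top stock 2 mM) for 72 h at 37 °C, 5% CO2. Viability was read by CellTiter-Glo; GI50 is the concentration (μM) giving 50% growth inhibition.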

For experiment [2], the system named is Ba/F3 cells expressing L858R/T790M/C797S (EGFR-LTC). Put plainly: Growth inhibition (GI50) of Ba/F3 cells expressing L858R/T790M/C797S (EGFR-LTC), Celltiter glo. The settings on record: Mus musculus, BaF3, 72 h. Summed up: (§1)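 Antiproliferative activity was assessed in EGFR-mutant or wild-type Ba/F3 cells over 72 h at 37 °C with 5% CO2. Cell viability was determined by CellTiter-Glo, and GI50 taken as the compound concentration inhibiting growth by 50%.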
(In general: In ATP-based viability assays light output follows the ATP content of the culture.)

The test system of experiment [3] is Ba/F3 cells expressing EGFR-wt. Briefly: Growth inhibition (GI50) of Ba/F3 cells expressing EGFR-wt, Celltiter glo. The settings on record: Mus musculus, BaF3, 72 h. Summed up:
as §1

For experiment [4], the system named is Ba/F3 cells expressing del19/T790M/C797S (EGFR-DTC). Put plainly: Growth inhibition (GI50) of Ba/F3 cells expressing del19/T790M/C797S (EGFR-DTC), Celltiter glo. The settings on record: Mus musculus, BaF3, 72 h. In outline:
as §1

Take `COc1cc(N2CCC(N3CCN(C)CC3)CC2)c(C)cc1Nc1ncc(Cl)c(N(C)c2ccccc2NS(C)(=O)=O)n1` [Example 120, N-(2-((5-chloro-2-((2-methoxy-5-methyl-4-(4-(4-methylpiperazin-1-yl)piperidin-1-yl)phenyl)amino)pyrimidin-4-yl)(methyl)amino)phenyl)methanesulfonamide]: the concentration for 50% growth inhibition (GI50) in experiment [1] is greater than 10000 nM; in experiment [2] it was 2000 to 10000 nM; in experiment [3], 2000 to 10000 nM; in experiment [4] it was 2000 to 10000 nM.
Consider `COc1nc(N2CCC(N3CCN(C)CC3)CC2)c(C)cc1Nc1ncc(Cl)c(N(C)c2ccccc2NS(C)(=O)=O)n1` [Example 121, N-(2-((5-chloro-2-((2-methoxy-5-methyl-6-(4-(4-methylpiperazin-1-yl)piperidin-1-yl)pyridin-3-yl)amino)pyrimidin-4-yl)(methyl)amino)phenyl)methanesulfonamide], for which the GI50 in experiment [1] is greater than 10000 nM; in experiment [2], 2000 to 10000 nM; in experiment [3], 2000 to 10000 nM; in experiment [4], 2000 to 10000 nM.
For the molecule `COc1nc(N2CCC(N3CCN(C)CC3)CC2)c(C)cc1Nc1ncc(Cl)c(Nc2ccc3nccnc3c2P(C)(C)=O)n1` [Example 122, (6-((5-chloro-2-((2-methoxy-5-methyl-6-(4-(4-methylpiperazin-1-yl)piperidin-1-yl)pyridin-3-yl)amino)pyrimidin-4-yl)amino)quinoxalin-5-yl)dimethylphosphine oxide], the GI50 fell in the range of 500 to 2000 nM in experiment [1], 25 to 100 nM in experiment [2], 100 to 500 nM in experiment [3] and 100 to 500 nM in experiment [4].
Turning to `COc1nc(N2CCC(N3CCN(C)CC3)CC2)ccc1Nc1ncc(Cl)c(Nc2ccc3nccnc3c2P(C)(C)=O)n1` [Example 123, (6-((5-chloro-2-((2-methoxy-6-(4-(4-methylpiperazin-1-yl)piperidin-1-yl)pyridin-3-yl)amino)pyrimidin-4-yl)amino)quinoxalin-5-yl)dimethylphosphine oxide], the GI50 fell in the range of 2000 to 10000 nM in experiment [1], 100 to 500 nM in experiment [2], 500 to 2000 nM in experiment [3] and 100 to 500 nM in experiment [4].
For `CN1CCN(C2CCN(c3ncc(Nc4ncc(Cl)c(Nc5ccc6nccnc6c5P(C)(C)=O)n4)cc3F)CC2)CC1` [Example 124, (6-((5-chloro-2-((5-fluoro-6-(4-(4-methylpiperazin-1-yl)piperidin-1-yl)pyridin-3-yl)amino)pyrimidin-4-yl)amino)quinoxalin-5-yl)dimethylphosphine oxide], the GI50 lay within 100 to 500 nM in experiment [1], 25 to 100 nM in experiment [2], 100 to 500 nM in experiment [3] and 25 to 100 nM in experiment [4].
Regarding `CN1CCN(C2CCN(c3ccc(Nc4ncc(Cl)c(Nc5ccc6nccnc6c5P(C)(C)=O)n4)cc3F)CC2)CC1` [Example 125, (6-((5-chloro-2-((3-fluoro-4-(4-(4-methylpiperazin-1-yl)piperidin-1-yl)phenyl)amino)pyrimidin-4-yl)amino)quinoxalin-5-yl)dimethylphosphine oxide], the GI50 lay in the range of 100 to 500 nM in experiment [1], 100 to 500 nM in experiment [2], 100 to 500 nM in experiment [3] and 25 to 100 nM in experiment [4].
Take `COc1nc(N2C[C@@H](C)N(C)[C@@H](C)C2)ccc1Nc1ncc(Cl)c(Nc2ccc3nccnc3c2P(C)(C)=O)n1` [Example 126, (6-((5-chloro-2-((2-methoxy-6-((3S,5R)-3,4,5-trimethylpiperazin-1-yl)pyridin-3-yl)amino)pyrimidin-4-yl)amino)quinoxalin-5-yl)dimethylphosphine oxide]: the GI50 in experiment [1] fell in the range of 2000 to 10000 nM; in experiment [2], 500 to 2000 nM; in experiment [3] it was 2000 to 10000 nM; in experiment [4], 100 to 500 nM.
In the case of `COc1nc(N2CCC(N(C)C)C2)ccc1Nc1ncc(Cl)c(Nc2ccc3nccnc3c2P(C)(C)=O)n1` (stereo not drawn) [Example 127, (6-((5-chloro-2-((6-(3-(dimethylamino)pyrrolidin-1-yl)-2-methoxypyridin-3-yl)amino)pyrimidin-4-yl)amino)quinoxalin-5-yl)dimethylphosphine oxide], the concentration for 50% growth inhibition (GI50) in experiment [1] is greater than 10000 nM; in experiment [2], 2000 to 10000 nM; in experiment [3], greater than 10000 nM; in experiment [4], 2000 to 10000 nM.
Take `COc1nc(N2CCNCC2)ccc1Nc1ncc(Cl)c(Nc2ccc3nccnc3c2P(C)(C)=O)n1` [Example 128, (6-((5-chloro-2-((2-methoxy-6-(piperazin-1-yl)pyridin-3-yl)amino)pyrimidin-4-yl)amino)quinoxalin-5-yl)dimethylphosphine oxide]: the concentration for 50% growth inhibition (GI50) in experiment [1] was 2000 to 10000 nM; in experiment [2], 500 to 2000 nM; in experiment [3], 2000 to 10000 nM; in experiment [4], 500 to 2000 nM.
For `COc1nc(N2CCS(=O)(=O)CC2)ccc1Nc1ncc(Cl)c(Nc2ccc3nccnc3c2P(C)(C)=O)n1` [Example 129, 4-(5-((5-chloro-4-((5-(dimethylphosphoryl)quinoxalin-6-yl)amino)pyrimidin-2-yl)amino)-6-methoxypyridin-2-yl)thiomorpholine 1,1-dioxide], the 50% growth inhibitory concentration (GI50) was greater than 10000 nM in experiment [1], 2000 to 10000 nM in experiment [2], 2000 to 10000 nM in experiment [3] and 2000 to 10000 nM in experiment [4].
As to `COc1nc(N2CCC(N3CCN(C)CC3)CC2)ccc1Nc1ncc(Cl)c(Nc2ccc3nccnc3c2NS(C)(=O)=O)n1` [Example 132, N-(6-((5-chloro-2-((2-methoxy-6-(4-(4-methylpiperazin-1-yl)piperidin-1-yl)pyridin-3-yl)amino)pyrimidin-4-yl)amino)quinoxalin-5-yl)methanesulfonamide], the GI50 in experiment [1] fell in the range of 500 to 2000 nM; in experiment [2], 100 to 500 nM; in experiment [3], 500 to 2000 nM; in experiment [4] it was 100 to 500 nM.
Take `COc1cc(N2CCC(N3CCN(C)CC3)CC2)ccc1Nc1ncc(Cl)c(Nc2ccc3nccnc3c2NS(C)(=O)=O)n1` [Example 133, N-(6-((5-chloro-2-((2-methoxy-4-(4-(4-methylpiperazin-1-yl)piperidin-1-yl)phenyl)amino)pyrimidin-4-yl)amino)quinoxalin-5-yl)methanesulfonamide]: the 50% growth inhibitory concentration (GI50) in experiment [1] lay within 500 to 2000 nM; in experiment [2], 100 to 500 nM; in experiment [3], 500 to 2000 nM; in experiment [4], 100 to 500 nM.
As to `COc1nc(N2C[C@@H](C)N(C)[C@@H](C)C2)ccc1Nc1ncc(Cl)c(Nc2ccc3nccnc3c2NS(C)(=O)=O)n1` [Example 135, N-(6-((5-chloro-2-((2-methoxy-6-((3S,5R)-3,4,5-trimethylpiperazin-1-yl)pyridin-3-yl)amino)pyrimidin-4-yl)amino)quinoxalin-5-yl)methanesulfonamide], the GI50 was in the range of 500 to 2000 nM in experiment [1], 100 to 500 nM in experiment [2], 500 to 2000 nM in experiment [3] and 100 to 500 nM in experiment [4].
With `COc1cc(N2CCC(N3CCN(C)CC3)CC2)c(Cl)cc1Nc1ncc(Cl)c(Nc2ccc3nccnc3c2NS(C)(=O)=O)n1` [Example 136, N-(6-((5-chloro-2-((5-chloro-2-methoxy-4-(4-(4-methylpiperazin-1-yl)piperidin-1-yl)phenyl)amino)pyrimidin-4-yl)amino)quinoxalin-5-yl)methanesulfonamide], the 50% growth inhibitory concentration (GI50) in experiment [1] was in the range of 500 to 2000 nM; in experiment [2], 100 to 500 nM; in experiment [3] it was 500 to 2000 nM; in experiment [4] it was 100 to 500 nM.
As to `COc1cc(N2CCC(N3CCN(C)CC3)CC2)c(Cl)cc1Nc1ncc(Cl)c(Nc2cc(C(F)(F)F)ccc2NS(C)(=O)=O)n1` [Example 137, N-(2-((5-chloro-2-((5-chloro-2-methoxy-4-(4-(4-methylpiperazin-1-yl)piperidin-1-yl)phenyl)amino)pyrimidin-4-yl)amino)-4-(trifluoromethyl)phenyl)methanesulfonamide], the 50% growth inhibitory concentration (GI50) in experiment [1] was in the range of 2000 to 10000 nM; in experiment [2], 100 to 500 nM; in experiment [3] it was 500 to 2000 nM; in experiment [4] it was 100 to 500 nM.
Turning to `COc1cc(N2CCC(N3CCN(C)CC3)CC2)c(C)cc1Nc1ncc(Cl)c(Nc2cc(C(F)(F)F)ccc2NS(C)(=O)=O)n1` [Example 138, N-(2-((5-chloro-2-((2-methoxy-5-methyl-4-(4-(4-methylpiperazin-1-yl)piperidin-1-yl)phenyl)amino)pyrimidin-4-yl)amino)-4-(trifluoromethyl)phenyl)methanesulfonamide], the GI50 in experiment [1] fell in the range of 500 to 2000 nM; in experiment [2], 100 to 500 nM; in experiment [3] it was 2000 to 10000 nM; in experiment [4], 100 to 500 nM.
For the molecule `COc1cc(N2CCC(N3CCN(C4CC4)CC3)CC2)c(C)cc1Nc1ncc(Cl)c(Nc2cc(C(F)(F)F)ccc2NS(C)(=O)=O)n1` [Example 139, N-(2-((5-chloro-2-((4-(4-(4-cyclopropylpiperazin-1-yl)piperidin-1-yl)-2-methoxy-5-methylphenyl)amino)pyrimidin-4-yl)amino)-4-(trifluoromethyl)phenyl)methanesulfonamide], the GI50 in experiment [1] fell in the range of 500 to 2000 nM; in experiment [2], 500 to 2000 nM; in experiment [3] it was 2000 to 10000 nM; in experiment [4], 500 to 2000 nM.
Turning to `COc1cc(N2CCC(N3CCN(C)CC3)CC2)c(C)cc1Nc1nc(N)c(Cl)c(Nc2ccc(F)cc2NS(C)(=O)=O)n1` [Example 141, N-(2-((6-amino-5-chloro-2-((2-methoxy-5-methyl-4-(4-(4-methylpiperazin-1-yl)piperidin-1-yl)phenyl)amino)pyrimidin-4-yl)amino)-5-fluorophenyl)methanesulfonamide], the 50% growth inhibitory concentration (GI50) was greater than 10000 nM in experiment [1], 500 to 2000 nM in experiment [2], 500 to 2000 nM in experiment [3] and 500 to 2000 nM in experiment [4].

One may read the GI50 as the concentration that inhibits growth by half.
